# Tested on: human PDE4
# Assay: PDE4 inhibition, in vitro enzymatic IMAP FP assay
# Format: biochemical
# Conditions: PDE4 partially purified from undifferentiated human monocytic cells (U-937); fluorescently labeled cAMP substrate; 90 minutes at room temperature; fluorescence polarization
# Protocol: PDE4 specifically hydrolyzes cAMP and releases the product AMP. The potency of PDE inhibition by said agents is determined in an in vitro enzymatic assay. The assay is commercially available (IMAP™ FP assay Molecular Devices Corp. (MDS)) and is optimized for the use of human PDE4. Fluorescently labeled cAMP is hydrolyzed by PDE4 and in a second step, binding of labeled product to a large binding partner allowed product detection by fluorescence polarization (FP) measurements.
# PDE4 is partially purified from undifferentiated human monocytic cells (U-937) according to Thorpy et al. 1992 (J. Pharmacol. Exp. Ther. 263: 1195). […] In addition, PDE4 preparations are validated by inhibition studies with PDE4-specific and unspecific PDE inhibitors.
# Stock solutions of test compounds are made in DMSO and diluted in assay buffer (10 mM Tris-HCl, 10 mM MgCl2, 0.1% BSA 0.05% NaN3, pH 7.2) to the desired concentrations. The solutions used in the assay contained test compound in assay buffer with 2% DMSO.
# 10 μl of substrate (at a concentration recommended by the manufacturer) are mixed with 5 μl of appropriately diluted PDE and 5 μl of test compound solution. 5 μl of reaction buffer with 2% DMSO are used for control reactions. […] After incubation for 90 minutes at room temperature, 60 μl of binding reagent are added as specified by the manufacturer. Binding is allowed to proceed for 30 minutes and fluorescence polarization is measured. Dose dependence of PDE inhibition is measured by assaying dilution series of test compounds in duplicates. IC50 values are determined from the measured activities by curve fitting.
row,Structure (SMILES),IC50
1,CC[C@H]1OC(=O)[C@H](C)[C@@H](O[C@H]2C[C@@](C)(OC)[C@@H](O)[C@H](C)O2)[C@H](C)[C@@H](O[C@@H]2O[C@H](C)C[C@H](N(C)CC(C)C)[C@H]2O)[C@](C)(OC)C[C@@H](C)C(=O)[C@H](C)[C@H]2[C@H](SCCn3cnc4c(N)ncnc43)C(=O)O[C@@]21C (stereo in doubt) [Example 2],2800 nM
2,CC[C@H]1OC(=O)[C@H](C)[C@@H](O)[C@H](C)[C@@H](O[C@@H]2O[C@H](C)C=C[C@H]2O)[C@](C)(OC)C[C@@H](C)C(=O)[C@H](C)[C@H]2[C@H](SCCn3cnc4c(N)ncnc43)C(=O)O[C@@]21C (stereo in doubt) [Example 1],4800 nM
3,CC[C@H]1OC(=O)[C@H](C)[C@@H](O[C@H]2C[C@@](C)(OC)[C@@H](O)[C@H](C)O2)[C@H](C)[C@@H](O[C@@H]2O[C@H](C)C[C@@H](OC)[C@@H]2N(C)C)[C@](C)(OC)C[C@@H](C)C(=O)[C@H](C)[C@H]2[C@H](SCCn3cnc4c(N)ncc(C(=O)Nc5c(Cl)cncc5Cl)c43)C(=O)O[C@@]21C (stereo in doubt) [Example 5],110 nM
4,CC[C@H]1OC(=O)[C@H](C)[C@@H](O[C@H]2C[C@@](C)(OC)[C@@H](O)[C@H](C)O2)[C@H](C)[C@@H](O[C@@H]2O[C@H](C)C[C@@H](OC)[C@@H]2N(C)C)[C@](C)(OC)C[C@@H](C)C(=O)[C@H](C)[C@H]2[C@H](SCCN(Cc3ccncc3)c3ccc(OC)c(OC4CCCC4)c3)C(=O)O[C@@]21C (stereo in doubt) [Example 6],1400 nM
5,CC[C@H]1OC(=O)[C@H](C)[C@@H](O[C@H]2C[C@@](C)(OC)[C@@H](O)[C@H](C)O2)[C@H](C)[C@@H](O[C@@H]2O[C@H](C)C[C@H](N(C)CC(C)C)[C@H]2O)[C@](C)(OC)C[C@@H](C)C(=O)[C@H](C)[C@H]2[C@H](SCCN(C(=O)c3ccncc3)c3ccc(OC)c(OC4CCCC4)c3)C(=O)O[C@@]21C (stereo in doubt) [Example 3],13600 nM
6,CC[C@H]1OC(=O)[C@H](C)[C@@H](O[C@H]2C[C@@](C)(OC)[C@@H](O)[C@H](C)O2)[C@H](C)[C@@H](O[C@@H]2O[C@H](C)C[C@@H](OC)[C@@H]2N(C)C)[C@](C)(OC)C[C@@H](C)C(=O)[C@H](C)[C@H]2[C@H](SCCN(Cc3c(Cl)cncc3Cl)c3ccc(OC)c(OC4CCCC4)c3)C(=O)O[C@@]21C (stereo in doubt) [Example 7],140 nM

# Next, values leading:
row,IC50,Structure (SMILES)
1,2.7 nM,CC[C@H]1OC(=O)[C@H](C)[C@@H](O[C@H]2C[C@@](C)(OC)[C@@H](O)[C@H](C)O2)[C@H](C)[C@@H](O[C@@H]2O[C@H](C)C[C@H](N(C)C(C)=O)[C@H]2O)[C@](C)(OC)C[C@@H](C)C(=O)[C@H](C)[C@H]2[C@H](SCCOc3cc(C(=O)Nc4c(Cl)cncc4Cl)ccc3OC)C(=O)O[C@@]21C (stereo in doubt) [Example 14]
2,220 nM,CC[C@H]1OC(=O)[C@H](C)[C@@H](O[C@H]2C[C@@](C)(OC)[C@@H](O)[C@H](C)O2)[C@H](C)[C@@H](O[C@@H]2O[C@H](C)C[C@H](N(C)C(=O)N3CCOCC3)[C@H]2O)[C@](C)(OC)C[C@@H](C)C(=O)[C@H](C)[C@H]2[C@H](SCCCOc3cc(C(=O)Nc4c(Cl)cncc4Cl)ccc3OC)C(=O)O[C@@]21C (stereo in doubt) [Example 16]
3,31 nM,CC[C@H]1OC(=O)[C@H](C)[C@@H](O[C@H]2C[C@@](C)(OC)[C@@H](O)[C@H](C)O2)[C@H](C)[C@@H](O[C@@H]2O[C@H](C)C[C@H](N(C)C(C)=O)[C@H]2O)[C@](C)(OC)C[C@@H](C)C(=O)[C@H](C)[C@H]2[C@H](SCCN(Cc3c(Cl)cncc3Cl)c3ccc(OC)c(OC4CCCC4)c3)C(=O)O[C@@]21C [Example 10]
4,220 nM,CC[C@H]1OC(=O)[C@H](C)[C@@H](O)[C@H](C)[C@@H](O[C@@H]2O[C@H](C)C[C@@H](OC)[C@@H]2N(C)C)[C@](C)(OC)C[C@@H](C)C(=O)[C@H](C)[C@H]2[C@H](SCCN(Cc3c(Cl)cncc3Cl)c3ccc(OC)c(OC4CCCC4)c3)C(=O)O[C@@]21C (stereo in doubt) [Example 8]
5,300 nM,CC[C@H]1OC(=O)[C@H](C)[C@@H](O)[C@H](C)[C@@H](O[C@@H]2O[C@H](C)C[C@H](N(C)C)[C@H]2OC)[C@](C)(OC)C[C@@H](C)C(=O)[C@H](C)[C@H]2[C@H](SCCN(Cc3c(Cl)cncc3Cl)c3ccc(OC)c(OC4CCCC4)c3)C(=O)O[C@@]21C (stereo in doubt) [Example 9]
6,220 nM,CC[C@H]1OC(=O)[C@H](C)[C@@H](O)[C@H](C)[C@@H](O[C@@H]2O[C@H](C)C[C@@H](N3CCOCC3)[C@@H]2N(C)C)[C@](C)(OC)C[C@@H](C)C(=O)[C@H](C)[C@H]2[C@H](SCCN(Cc3c(Cl)cncc3Cl)c3ccc(OC)c(OC4CCCC4)c3)C(=O)O[C@@]21C (stereo in doubt) [Example 12]

# — patent publication US8410065B2, “Macrolides and their use” (Basilea Pharmaceutica AG, priority 2008, dated 2013)
